Experimental data reported in the supplement of paper PMC10307832.

Tests used:
Assay in all cases: relative viability (nuclei count vs DMSO), 5 days (fraction); higher = more cells survive
Imatinib + OSI-027 = compound: Cc1ccc(NC(=O)c2ccc(CN3CCN(C)CC3)cc2)cc1Nc1nccc(-c2cccnc2)n1 [Imatinib] + COc1cccc2cc(-c3nc([C@H]4CC[C@H](C(=O)O)CC4)n4ncnc(N)c34)[nH]c12 [OSI-027] (partner 0.5 µM)
Outline: (§1)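 Dosing by pin tool came one day after lung cancer cell lines were seeded in 1536-well plates, using either one drug or a fixed anchor-drug dose plus five library-drug doses (not always all listed) in √10 steps. After 5 days, nuclei were counted on 4× images. Relative viability is treated-well nuclei count divided by vehicle-well nuclei count, and values are medians of duplicate plates.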

Imatinib + Pictilisib = compound: Cc1ccc(NC(=O)c2ccc(CN3CCN(C)CC3)cc2)cc1Nc1nccc(-c2cccnc2)n1 [Imatinib] + CS(=O)(=O)N1CCN(Cc2cc3nc(-c4cccc5[nH]ncc45)nc(N4CCOCC4)c3s2)CC1 [Pictilisib] (partner 1 µM)
Outline: as §1

Imatinib + Linsitinib = compound: Cc1ccc(NC(=O)c2ccc(CN3CCN(C)CC3)cc2)cc1Nc1nccc(-c2cccnc2)n1 [Imatinib] + C[C@]1(O)C[C@@H](c2nc(-c3ccc4ccc(-c5ccccc5)nc4c3)c3c(N)nccn32)C1 [Linsitinib] (partner 1 µM)
Outline: as §1

Imatinib + Lapatinib = compound: Cc1ccc(NC(=O)c2ccc(CN3CCN(C)CC3)cc2)cc1Nc1nccc(-c2cccnc2)n1 [Imatinib] + CS(=O)(=O)CCNCc1ccc(-c2ccc3ncnc(Nc4ccc(OCc5cccc(F)c5)c(Cl)c4)c3c2)o1 [Lapatinib] (partner 2 µM)
Outline: as §1

Row | Cell Line | relative viability (Imatinib + OSI-027; first compound 0.02 µM) | relative viability (Imatinib + OSI-027; first compound 0.06325 µM) | relative viability (Imatinib + OSI-027; first compound 0.2 µM) | relative viability (Imatinib + OSI-027; first compound 0.6325 µM) | relative viability (Imatinib + OSI-027; first compound 2 µM) | relative viability (Imatinib + Pictilisib; first compound 0.02 µM) | relative viability (Imatinib + Pictilisib; first compound 0.06325 µM) | relative viability (Imatinib + Pictilisib; first compound 0.2 µM) | relative viability (Imatinib + Pictilisib; first compound 0.6325 µM) | relative viability (Imatinib + Pictilisib; first compound 2 µM) | relative viability (Imatinib + Linsitinib; first compound 0.02 µM) | relative viability (Imatinib + Linsitinib; first compound 0.06325 µM) | relative viability (Imatinib + Linsitinib; first compound 0.2 µM) | relative viability (Imatinib + Linsitinib; first compound 0.6325 µM) | relative viability (Imatinib + Linsitinib; first compound 2 µM) | relative viability (Imatinib + Lapatinib; first compound 0.02 µM) | relative viability (Imatinib + Lapatinib; first compound 0.06325 µM) | relative viability (Imatinib + Lapatinib; first compound 0.2 µM) | relative viability (Imatinib + Lapatinib; first compound 0.6325 µM) | relative viability (Imatinib + Lapatinib; first compound 2 µM)
1 | EMC-BAC-2 | 0.378 | 0.338 | 0.39 | 0.399 | 0.364 | 0.513 | 0.505 | 0.614 | 0.536 | 0.582 | 0.845 | 0.961 | 0.889 | 0.767 | 0.868 | 0.937 | 0.702 | 0.833 | 0.972 | 0.873
2 | HOP-62 | 0.999 |  | 0.993 | 0.724 | 0.781 | 0.775 |  | 0.822 | 0.569 | 0.958 | 1.12 |  |  | 0.953 | 0.857 | 1.03 |  | 0.999 | 0.935 | 0.991
3 | NCI-H661 | 0.738 | 0.818 | 0.802 | 0.645 | 0.695 | 0.333 | 0.431 | 0.456 | 0.374 | 0.413 | 0.553 | 0.345 | 0.611 | 0.362 | 0.56 | 0.434 | 0.296 | 0.546 | 0.19 | 0.481
4 | NCI-H1993 | 0.538 | 0.491 | 0.617 | 0.543 | 0.625 |  | 0.861 | 0.805 | 0.997 | 0.924 |  | 0.73 | 0.747 | 0.72 | 0.707 |  | 0.872 | 0.774 | 0.809 | 0.698
5 | NCI-H647 | 0.621 | 0.693 | 0.704 | 0.626 | 0.562 | 0.462 | 0.447 | 0.433 | 0.38 | 0.385 | 1.43 | 1.44 | 1.25 | 1.13 | 1.18 |  | 1.11 | 1.2 | 1.17 | 1.02
6 | EPLC-272H | 0.265 |  | 0.273 | 0.311 | 0.249 | 0.301 |  | 0.402 | 0.344 | 0.286 | 1.28 |  | 1.24 | 1.23 | 1.02 | 0.779 |  | 0.97 | 1.17 | 0.835
7 | NCI-H1915 | 0.61 |  | 0.67 | 0.6 | 0.599 | 0.962 |  | 1.01 | 0.958 | 0.871 | 1.09 |  | 1.17 | 1.08 | 1.08 | 0.974 |  | 1.04 | 0.952 | 
8 | CAL-12T | 0.714 |  | 0.605 | 0.702 | 0.471 | 0.507 | 0.433 | 0.486 | 0.667 | 0.524 | 0.908 | 0.877 | 0.996 | 0.982 | 0.788 | 0.631 | 0.609 | 0.938 | 0.705 | 0.667
9 | NCI-H727 | 0.455 | 0.476 | 0.519 | 0.773 | 0.551 | 0.356 | 0.442 | 0.355 | 0.524 | 0.383 | 0.301 | 0.249 | 0.277 | 0.299 | 0.347 | 0.626 | 0.637 | 0.84 | 0.769 | 0.801
10 | HARA | 0.47 |  | 0.518 | 0.583 | 0.404 | 0.42 | 0.406 | 0.389 | 0.363 | 0.339 | 1.16 | 0.906 | 1.05 | 0.994 | 0.969 | 0.629 | 0.996 | 0.83 | 0.748 | 0.781
11 | LK-2 | 0.178 | 0.207 | 0.151 | 0.217 | 0.212 | 0.639 |  | 0.581 | 0.488 | 0.572 | 0.614 | 0.427 | 0.739 | 0.222 | 0.689 | 1.02 | 0.625 | 1.11 | 0.486 | 0.967
12 | NCI-H2009 | 0.666 |  | 0.672 | 0.623 | 0.582 | 0.809 | 0.429 | 0.909 | 0.878 | 0.896 | 1.19 | 1.32 | 1.21 | 1.24 | 1.24 | 0.974 | 0.442 | 1.05 | 0.87 | 0.939
13 | NCI-H2087 | 0.601 |  | 0.643 | 0.618 | 0.572 | 1.13 | 0.44 | 0.796 |  | 0.858 | 1.09 | 1 | 1.07 | 0.991 | 0.85 | 1.06 | 0.654 | 1.21 | 1.05 | 
14 | NCI-H1944 | 0.423 | 0.267 | 0.403 | 0.425 | 0.381 | 0.353 |  | 0.368 | 0.324 | 0.335 | 1.21 |  | 1.12 | 1.07 | 1.18 | 0.8 |  | 0.991 | 0.853 | 0.771
15 | NCI-H1563 | 0.825 | 0.803 | 0.774 | 0.743 | 0.731 | 0.662 | 0.537 | 0.634 | 0.605 | 0.589 | 1.15 | 1.31 | 1.22 | 1.25 | 1.16 | 1.01 | 0.699 | 0.98 | 0.869 | 
16 | LC-2-ad | 0.788 | 0.623 | 0.822 | 0.833 | 0.929 | 0.379 | 0.492 | 0.573 | 0.429 | 0.43 | 0.838 | 0.875 | 0.896 | 0.825 | 0.84 | 0.933 | 0.886 | 0.884 | 1.02 | 0.935
17 | EKVX |  | 0.388 | 0.65 | 0.551 | 0.868 | 0.419 | 0.343 | 0.475 | 0.528 | 0.508 | 1.09 |  | 0.968 | 1.02 | 1.12 | 0.222 | 0.189 | 0.197 | 0.208 | 0.197
18 | NCI-H322M | 0.624 | 0.544 | 0.553 | 0.522 | 0.52 | 0.516 | 0.454 | 0.561 | 0.485 | 0.565 | 1.01 | 0.895 |  | 0.891 | 0.981 | 0.613 | 0.61 | 0.656 | 0.534 | 0.63
19 | SK-MES-1 | 0.717 | 0.407 | 0.642 | 0.521 | 0.597 | 0.366 | 0.323 | 0.39 | 0.357 | 0.379 | 1.07 | 1.19 | 1.23 | 1.06 | 1.19 | 0.496 | 0.512 | 0.505 | 0.471 | 0.494
20 | H3255 | 0.568 | 0.662 | 0.539 | 0.612 | 0.548 | 0.493 | 0.488 | 0.507 | 0.447 | 0.426 | 1.06 | 0.921 | 0.877 | 0.965 | 0.998 | 0.234 |  | 0.268 | 0.266 | 0.23
21 | NCI-H1395 | 0.63 | 0.443 | 0.705 | 0.581 | 0.606 | 0.622 |  | 0.6 | 0.651 | 0.605 | 0.978 |  | 1.04 | 1.02 | 0.975 | 0.956 |  |  | 0.988 | 1.19
22 | NCI-H2405 | 0.629 |  | 0.645 | 0.592 | 0.641 | 0.482 |  | 0.428 | 0.353 | 0.52 | 1.05 |  | 0.869 | 0.762 | 0.956 | 1.05 |  | 1.1 | 0.961 | 1.15
23 | LOU-NH91 | 0.759 | 0.708 | 0.745 | 0.699 | 0.658 | 0.51 | 0.546 | 0.49 | 0.537 | 0.498 | 0.993 | 0.964 | 0.996 | 0.869 | 0.87 | 0.793 | 0.775 | 0.792 | 0.765 | 0.766
24 | HCC-44 | 0.484 | 0.422 | 0.437 | 0.466 | 0.461 | 0.604 | 0.653 | 0.974 | 0.548 | 0.529 | 0.801 |  | 0.664 | 0.549 | 0.646 | 1.13 | 1.15 |  | 0.991 | 0.934
25 | NCI-H520 | 0.214 | 0.255 | 0.242 | 0.224 | 0.273 | 0.348 | 0.362 | 0.305 | 0.289 | 0.306 | 1.09 | 1.48 | 1.02 | 1.14 | 0.988 | 1.06 |  | 1.01 | 0.82 | 0.86
26 | NCI-H1437 | 0.998 | 0.945 |  | 0.911 | 0.891 | 0.391 | 0.454 | 0.422 | 0.463 | 0.424 |  | 1.18 | 1.42 |  | 1.04 | 0.916 | 0.841 | 0.925 | 0.706 | 0.823
27 | COR-L23 | 0.869 | 0.831 | 0.853 | 0.824 | 0.64 | 1.02 | 0.715 | 1.1 | 0.786 |  | 1.14 | 1.01 | 1.18 | 0.895 | 1.04 | 1.13 | 0.791 | 1.41 | 0.922 | 0.829
28 | NCI-H1975 | 0.843 | 0.772 | 0.827 | 0.579 | 0.549 | 0.332 | 0.311 | 0.294 | 0.28 | 0.324 | 0.977 | 0.965 | 1.07 | 0.843 | 0.958 | 1.01 | 1.04 | 1.03 | 1.03 | 
29 | NCI-H1651 |  | 0.848 | 0.727 | 0.739 | 0.665 | 0.759 | 0.62 | 0.698 | 0.634 | 0.569 | 1.09 | 1.14 | 1.21 | 0.946 | 1.11 | 1.02 | 1.06 | 0.994 | 0.692 | 0.87
